Results on 3 molecules are retold here after patent US11590109B2 (priority 2016, dated 2023).

Data set [1] concerns Dengue Virus 2 (type 2 dengue virus). The data set can be described thus: Inhibition of viral replication (CPE) at cellular level, Dengue Virus 2 in Vero. It counts as cell-based. To be noted: Dengue Virus 2 in host cell Vero; for IC50: CPE. An excerpt:
Activity Test for Inhibition of Viral Replication at Cellular Level […]
The present inventors tested inhibitory effects of the compound of the present invention on cytopathic effects (CPE) caused by viral infection on mammalian cells.
Half-inhibitory concentration IC50 and half toxic concentration TC50 of the compound against Dengue Virus 2 (type 2 dengue virus) in host cell Vero (African green monkey kidney cell).

Data set [2] in a line: Determination of TC50 (half toxicity concentration) in RD cells. Type of data set: cell-based. Particulars: human, host cell RD, EV71 table.
Data set [3] concerns H3N2 (influenza virus). Particulars: H3N2 in host cell MDCK.
The subject of data set [4] is H1N1 (influenza virus). Particulars: H1N1 in host cell MDCK.
In data set [5] the test system is H7N9 (influenza virus). Particulars: H7N9 in host cell MDCK.
The test system of data set [6] is EV71 (hand-foot-and-mouth virus). Particulars: for SI (TC50/IC50): EV71 in host cell RD.
Data set [7] can be described thus: in vitro. To be noted: dog, TC50.
A short description of data set [8]: in vitro. To be noted: African green monkey.
The test system of data set [9] is H3N2 (influenza virus). The data set can be described thus: microbe, parasite or virus in culture. To be noted: Influenza A virus, H3N2, MDCK.
Data set [10] concerns H1N1 (influenza virus). The data set can be described thus: microbe, parasite or virus in culture. Particulars: Influenza A virus, H1N1, MDCK.
The subject of data set [11] is H7N9 (influenza virus). The data set can be described thus: microbe, parasite or virus in culture. To be noted: Influenza A virus, H7N9, MDCK.
Data set [12] relates to EV71 (hand-foot-and-mouth virus). The data set can be described thus: microbe, parasite or virus in culture. To be noted: Enterovirus A.
Data set [13] relates to RSV (human respiratory syncytial virus). The data set can be described thus: Inhibition of viral replication (CPE) at cellular level, RSV in Vero. To be noted: for SI (TC50/IC50): RSV in host cell Vero; for IC50: human respiratory syncytial virus, Vero.
Data set [14] deals with JEV (Japanese encephalitis virus). The data set can be described thus: Inhibition of viral replication (CPE) at cellular level, JEV in Vero. To be noted: for SI (TC50/IC50): JEV in host cell Vero; for IC50: Japanese encephalitis virus, Vero.
Data set [15] concerns Zika Virus. The data set can be described thus: Inhibition of viral replication (CPE) at cellular level, Zika Virus in Vero. Particulars: for SI (TC50/IC50): Zika Virus in host cell Vero; for IC50: Zika virus, Vero.
Where [16] appears, read: TC50, host cell Vero, Dengue Virus 2 table.
[17] abbreviates: TC50, host cell Vero, RSV table.
The mark [18] stands for this setting: TC50, host cell Vero, Zika Virus table.

On to `CN(/N=C/c1ccc(C(F)(F)F)cc1C(=O)O)c1nc(-c2ccccc2Cl)cs1` [Compound 8, (E)-4-(2-chlorophenyl)-2-[1-methyl-2-(4-trifluoromethyl-2-carboxybenzylidene)hydrazino]thiazole], for which the “SI (TC50/IC50)” value in data set [1] was 211; in data set [3] it was 233; in [4], 49; in data set [5], 66; in [6], 11; in data set [13] it was 5.5. The figures for the “SI (TC50/IC50)” value in [14] and in [15] were 170 and 158, respectively. Further, the IC50 (as a rule, the point on the concentration scale where inhibition reaches its midpoint) in data set [1] amounted to 0.09 µM; in [9] it was 0.21 µM; in data set [10] it was 0.63 µM; in [11] it was 0.59 µM; in [12], 0.09 µM; in [13] it was 5.63 µM. Besides, the IC50 amounted to 0.1 µM in data set [14] and 0.12 µM in data set [15]. Moreover, the CC50 worked out at 1 µM in data set [2]; 49 µM in data set [7]; 17 µM in data set [8]; 19 µM in data set [8] (setting [16]); 31 µM in data set [8] (setting [17]); 19 µM in [8] (setting [18]).

For the molecule `O=C(O)c1cc(C(F)(F)F)ccc1/C=N/Nc1nc(-c2ccccc2Cl)cs1` [Compound 8-1], the “SI (TC50/IC50)” value in [1] is on record as 325; in data set [3] it was 456; in [4], 138; in data set [5], 117; in data set [6], 10.5; in data set [13], 14. Further, the results for the “SI (TC50/IC50)” value in [14] and in [15] were 156 and 264, respectively. Moreover, the IC50 stood at 0.2 µM in data set [1]; 0.25 µM in [9]; 0.89 µM in [10]; 0.86 µM in data set [11]; 0.19 µM in [12]; 8.89 µM in data set [13]. Moreover, the IC50 in data set [14] worked out at 0.23 µM; in data set [15], 0.25 µM. The CC50 worked out at 2 µM in data set [2]; 114 µM in data set [7]; 36 µM in [8]; 65 µM in data set [8] (setting [16]); 123 µM in [8] (setting [17]); 66 µM in [8] (setting [18]).

For `CN(/N=C/c1ccc(F)cc1C(=O)O)c1nc(-c2ccccc2Cl)cs1` [Compound 10, (E)-4-(2-chlorophenyl)-2-[1-methyl-2-(2-carboxyl-4-fluorobenzylidene)hydrazino]thiazole], the “SI (TC50/IC50)” value in data set [1] amounted to 460; in data set [3], 320; in data set [4] it was 233; in [5] it was 161; in data set [6] it was 10; in data set [13] it was 3.6. Also, the “SI (TC50/IC50)” value in data set [14] came to 216; in data set [15], 350. The IC50 in data set [1] is 0.05 µM; in data set [9] it was 0.1 µM; in data set [10] it was 0.21 µM; in data set [11], 0.28 µM; in data set [12], 0.05 µM; in [13], 5.21 µM. In addition, the 50% inhibitory concentration (IC50) in data set [14] and in data set [15] was 0.06 µM in each case. Moreover, the CC50 in data set [2] came to 0.5 µM; in data set [7], 32 µM; in data set [8] it was 13 µM; in [8] (setting [16]) it was 23 µM; in data set [8] (setting [17]), 19 µM; in data set [8] (setting [18]), 21 µM. Also, the “inhibitory effects on human hand-foot-mouth virus EV71” value in [6] (FIG. 2) is listed as “a certain inhibitory effects”.
